Laboratory results from patent US10167285B2, “Small-molecule HSP90 inhibitors” (Memorial Sloan Kettering Cancer Center, priority 2005, dated 2019).
Values joined by “and” are separate entries in the source; they are usually repeats but may differ in a detail not shown here. Equal values may be shown once. Read-outs that look alike come from different tables or passages of the source.

Legend:
[1] = test system: renal proximal tubular epithelial cells (RPTEC); assay: Growth inhibition of normal RPTEC cells; format: cell-based, human; conditions: for IC50: 72 h, read-out: IC50 RPTEC
Method: (§1) Cell culture. The human breast cancer cell lines SKBr3 and MDA-MB-468 were a gift from Dr. Neal Rosen (MSKCC). Cells were maintained in 1:1 mixture of DME:F12 supplemented with 2 mM glutamine, 50 units/mL penicillin, 50 […] and 10% heat inactivated fetal bovine serum (Gemini Bioproducts #100-10b) and incubated at 37° C., 5% CO2. Growth assays. Growth inhibition studies were performed using the sulforhodamine B assay as previously described.^29 In summary, experimental cultures were plated in microtiter plates (Nunc #167008). One column of wells was left without cells to serve as the blank control. Cells were allowed to attach overnight. The following day, growth medium having either drug or DMSO at twice the desired initial concentration was added to the plate in triplicate and was serially diluted at a 1:1 ratio in the microtiter plate. After 72 h of growth, the cell number in treated versus control wells was estimated after treatment with 50% trichloroacetic acid and staining with 0.4% sulforhodamine B in 1% acetic acid. […] Normal human renal proximal tubular epithelial (RPTEC) cells were purchased pre-seeded in 96-well plates (Clonetics, CC-3190). Upon receipt, cells were placed in a humidified incubator at 37° C., 5% CO2 and allowed to equilibrate for 3 h. Media was removed by suction and replaced with fresh media provided by the manufacturer. Cells were then treated with either drugs or DMSO for 72 h and the IC50 values were determined as described above.

Hsp90 Brain = assay: Hsp90 competition assay, brain homogenate; format: binding, mouse; conditions: for EC50: normal tissue; for Brain/SKBr3: ratio of EC50 Hsp90 values
Method: (§2) Hsp90 competition assay. Fluorescence polarization measurements were performed on an Analyst AD instrument (Molecular Devices, Sunnyvale, Calif.). […] The assay buffer (HFB) contained 20 mM HEPES (K) pH 7.3, 50 mM KCl, 5 mM MgCl2, 20 mM Na2MoO4, 0.01% NP40. Before each use, 0.1 mg/mL bovine gamma globulin (BGG) (Panvera Corporation, Madison, Wis.) and 2 mM DTT (Fisher Biotech, Fair Lawn, N.J.) were freshly added. […] Cell lysates were prepared rupturing cellular membranes by freezing at −70° C. and dissolving the cellular extract in HFB with added protease and phosphotase inhibitors. Organs were harvested from a healthy mouse and homogenized in HFB. Saturation curves were recorded in which GM-BODIPY (5 nM) was treated with increasing amounts of cellular lysates.

Hsp90 SKBr3 = assay: Hsp90 competition assay, SKBr3 cell lysate; conditions: read-out: EC50 Hsp90 SKBr3
Method: Hsp90 competition assay. Fluorescence polarization measurements were performed on an Analyst AD instrument (Molecular Devices, Sunnyvale, Calif.). […] The assay buffer (HFB) contained 20 mM HEPES (K) pH 7.3, 50 mM KCl, 5 mM MgCl2, 20 mM Na2MoO4, 0.01% NP40. Before each use, 0.1 mg/mL bovine gamma globulin (BGG) (Panvera Corporation, Madison, Wis.) and 2 mM DTT (Fisher Biotech, Fair Lawn, N.J.) were freshly added. GM-BODIPY was synthesized as previously reported^23a and was dissolved in DMSO to form 10 μM solutions. Recombinant Hsp90α was purchased from Stressgen Bioreagents (cat. No. SPP-776), (Victoria, Canada). Cell lysates were prepared rupturing cellular membranes by freezing at −70° C. and dissolving the cellular extract in HFB with added protease and phosphotase inhibitors. […] Saturation curves were recorded in which GM-BODIPY (5 nM) was treated with increasing amounts of cellular lysates.

recombinant Hsp90α = recombinant Hsp90α (Homo sapiens (Human), UniProt P07900); assay: Hsp90 competition assay (fluorescence polarization), recombinant protein; format: binding; conditions: average of 3 measurements, displacement of fluorescent GM
Method: Hsp90 competition assay. Fluorescence polarization measurements were performed on an Analyst AD instrument (Molecular Devices, Sunnyvale, Calif.). […] The assay buffer (HFB) contained 20 mM HEPES (K) pH 7.3, 50 mM KCl, 5 mM MgCl2, 20 mM Na2MoO4, 0.01% NP40. Before each use, 0.1 mg/mL bovine gamma globulin (BGG) (Panvera Corporation, Madison, Wis.) and 2 mM DTT (Fisher Biotech, Fair Lawn, N.J.) were freshly added. GM-BODIPY was synthesized as previously reported^23a and was dissolved in DMSO to form 10 μM solutions.

SCLC cell lines = assay: Cell death and apoptosis across the SCLC cell lines; format: cell-based; conditions: each of the SCLC cell lines, FIGS. 6A and B
Hsp90 heart = assay: Hsp90 competition assay, heart homogenate; conditions: for Heart/SKBr3: ratio of EC50 Hsp90 values; for EC50: read-out: EC50 Hsp90 heart, normal tissue
Method: as §2

MDA-MB-468 cells = assay: Anti-mitotic assay (Tg-3 microtiter immunoassay); format: cell-based, human; conditions: 24 h, concentration dependent increase in Tg-3 luminescence
Method: Anti-mitotic assay. Black, clear-bottom microtiter 96-well plates (Corning Costar #3603) were used to accommodate experimental cultures. MDA-MB-468 cells were seeded in each well at 8,000 cells per well in growth medium (100 μL), and allowed to attach overnight at 37° C. and 5% CO2. Growth medium (100 μL) with drug or vehicle (DMSO) was gently added to the wells, and the plates were incubated at 37° C. and 5% CO2 for 24 h. Wells were washed with ice-cold TBST (2×200 μL). A house vacuum source attached to an eight-channel aspirator was used to remove the liquid from the 96-well plates. Ice-cold methanol (100 μL) was added to each well, and the plate was placed at 4° C. for 5 min. Methanol was removed by suction and plates were washed with ice-cold TBST (2×200 μL). Plates were further incubated with SuperBlock® blocking buffer (Pierce #37535) (200 μL) for 2 h at RT. The Tg-3 antibody (gift of Dr. Davies, Albert Einstein College of Medicine) diluted 1:200 in SuperBlock® was placed in each well (100 μL) except the control column that was treated with control antibody (Mouse IgM, NeoMarkers, NC-1030-P). After 72 h, wells were washed with ice-cold TBST (2×200 μL). […] Un-reacted antibody was removed by washing the plates with ice-cold TBST (3×200 μL) for 5 min on a shaker. The ECLTM Western Blotting Detection Reagents 1 and 2 in 1:1 mix (100 μL) was placed in each well and the plates were read immediately in an Analyst AD plate reader (Molecular Devices). Luminescence readings were imported into SOFTmax PROR 4.3.1. Anti-mitotic activity was defined as a concentration dependent increase in luminescence readings in compound-treated wells as compared to DMSO only treated wells.

Hsp90 lung = assay: Hsp90 competition assay, lung homogenate; conditions: for Lung/SKBr3: ratio of EC50 Hsp90 values; for EC50: read-out: EC50 Hsp90 lung, normal tissue
Method: as §2

Her2 = Her2 assay (microtiter immunoassay of Her2 degradation); format: cell-based, human
Method: Her2 assay. SKBr3 cells were plated in black, clear-bottom microtiter plates (Corning #3603) at 3,000 cells/well in growth medium (100 μl) and allowed to attach for 24 h at 37° C. and 5% CO2. Growth medium (100 μl) with drug or vehicle (DMSO) was carefully added to the wells, and the plates were placed at 37° C. and 5% CO2. Following 24 h incubation with drugs, wells were washed with ice-cold Tris buffer saline (TBS) containing 0.1% Tween 20 (TBST) (200 μl). A house vacuum source attached to an eight-channel aspirator was used to remove the liquid from the plates. Further, methanol (100 μl at −20° C.) was added to each well, and the plate was placed at 4° C. for 10 min. Methanol was removed by washing with TBST (2×200 μl). After further incubation at RT for 2 h with SuperBlockR (Pierce 37535) (200 μl), anti-Her-2 (c-erbB-2) antibody (Zymed Laboratories #28-004) (100 μl, 1:200 in SuperBlockR) was placed in each well. The plate was incubated overnight at 4° C. For control wells, 1:200 dilution of a normal rabbit IgG (Santa Cruz #SC-2027) in SuperblockR was used. Each well was washed with TBST (2×200 μl) and incubated at RT for 2 h with an anti-rabbit HRP-linked antibody (Sigma, A-0545) (100 μl, 1:2000 in SuperBlockR). Unreacted antibody was removed by washing with TBST (3×200 μl), and the ECLTM Western blotting reagent (Amersham #RPN2106) (100 μL) was added. The plate was immediately read in an Analyst AD plate reader (Molecular Devices). Each well was scanned for 0.1 s. Readings from wells containing only control IgG and the corresponding HRP-linked secondary antibody were set as background and deducted from all measured values.

[2] = test system: SKBr3 breast cancer cells; assay: Growth inhibition, sulforhodamine B assay; format: cell-based, human; conditions: average of 3 measurements
Method: as §1

Solubility in PBS = format: physicochemical; conditions: aqueous buffer, acid addition salt form
Method: Growth over 96 h was assessed.

[3] = Her2 degradation in SKBr3 cells, 24 h; average of 3 measurements
[4] = Homo sapiens, SK-BR-3; Her2 degradation in SKBr3 cells, 24 h; average of 3 measurements

| Molecule | EC50 (Hsp90 SKBr3) [µM] | Anti-mitotic (MDA-MB-468 cells) | EC50 (recombinant Hsp90α; read-out: EC50 Hsp90-α) [µM] | IC50 ([2]; Homo sapiens, SK-BR-3, 72 h) [µM] | IC50 (Her2; [4]) [µM] | further results |
| --- | --- | --- | --- | --- | --- | --- |
| 9-(Pent-4-ynyl)-8-(2,4,5-trichloro-phenylsulfanyl)adenine [Example 2] | 0.09 ± 0.03 | – | – | – | – | IC50 ([1]; normal cells): 28.1 ± 2.2 µM; RPTEC/SKBr3 ([1]; ratio of growth IC50 values): 15.6; EC50 (Hsp90 Brain): 26.7 ± 7.7 µM; Brain/SKBr3 (Hsp90 Brain): 298 |
| C#CCCCn1c(Sc2cc3c(cc2Br)OCO3)nc2c(N)ncnc21 [Example 1, 9-(Pent-4-ynyl)-8-(6-bromo-benzo[1,3]dioxol-5-ylsulfanyl)adenine] | 0.02 ± 0.06 | Yes | – | – | – | EC50 (recombinant Hsp90α; EC50 Hsp90-α): 0.03 µM and 0.0508 µM; induction of apoptosis (SCLC cell lines): induced apoptosis; Heart/SKBr3 (Hsp90 heart): 3265; EC50 (Hsp90 heart): 65.3 ± 9.9 µM; IC50 ([1]; Homo sapiens, RPTEC): 4.1 ± 0.9 µM; EC50 (Hsp90 Brain): 40.2 ± 25.3 µM; Brain/SKBr3 (Hsp90 Brain): 2000; Lung/SKBr3 (Hsp90 lung): 735; EC50 (Hsp90 lung): 14.7 ± 1.7 µM; IC50 (Her2; [3]): 0.365 ± 0.045 µM; IC50 (Her2; Homo sapiens, SK-BR-3, 24 h, Her2 degradation in SKBr3 cells, average of 3 measurements): 0.3 ± 0.05 µM |
| C#CCCCn1c(Sc2cc(Cl)c(Cl)cc2Cl)nc2c(N)ncnc21 [Example 2, 9-(Pent-4-ynyl)-8-(2,4,5-trichloro-phenylsulfanyl)adenine] | – | No | 8.5 ± 0.1 | 48.4 ± 2.5 | 58 ± 1.4 | – |
| COc1cc(Sc2nc3c(N)ncnc3n2CCOC(C)C)c(Cl)cc1Cl [Example 3, 9-(2-Isopropoxy-ethyl)-8-(2,4-dichloro-5-methoxy-benzenesulfanyl)adenine] | – | No | 5 ± 1.1 | – | – | IC50 ([2]; 72 h): 16.1 ± 0.7 µM; IC50 (Her2; [3]): 58.3 ± 2.2 µM |
| Nc1ncnc2nc(Sc3cc(Cl)c(Cl)cc3Cl)[nH]c12 [Example 4, 8-(2,4,5-Trichloro-phenylsulfanyl)adenine] | – | Yes | 15.4 ± 2.2 | 36 ± 0.2 | 47.8 ± 3.2 | – |
| C#CCCCn1c(Cc2cc3c(cc2Br)OCO3)nc2c(N)nc(F)nc21 [Example 6, 2-Fluoro-8-(6-bromo-benzo[1,3]dioxol-5-ylmethyl)-9-(pent-4-ynyl)adenine] | 0.0388 ± 0.003 | Yes | 0.0565 ± 0.002 | 0.215 ± 0.055 | 0.21 ± 0.01 | Heart/SKBr3 (Hsp90 heart): 343; EC50 (Hsp90 heart): 13.3 ± 0.21 µM; Lung/SKBr3 (Hsp90 lung): 134; EC50 (Hsp90 lung): 5.2 ± 0.21 µM |
| C#CCCCn1c(Cc2cc3c(cc2Cl)OCO3)nc2c(N)nc(F)nc21 [Example 7, 2-Fluoro-8-(6-chloro-benzo[1,3]dioxol-5-ylmethyl)-9-(pent-4-ynyl)adenine] | – | Yes | 0.0772 ± 0.001 | 0.25 ± 0.03 | 0.3 ± 0.015 | – |
| CC(C)NCCCn1c(Cc2cc3c(cc2I)OCO3)nc2c(N)nc(F)nc21 [Example 8, 2-Fluoro-8-(6-iodo-benzo[1,3]dioxol-5-ylmethyl)-9-(3-isopropylamino-propyl) adenine] | – | Yes | 0.0504 ± 0.004 | 0.045 ± 0.006 | 0.08 ± 0.01 | solubility (Solubility in PBS): > 5 mM |
| C#CCCCn1c(Sc2cc3c(cc2I)OCO3)nc2c(N)ncnc21 [Example 10, 8-(6-Iodo-benzo[1,3]dioxol-5-ylsulfanyl)-9-(pent-4-ynyl)adenine] | 0.0161 ± 0.001 | Yes | – | 0.09 ± 0.002 | 0.1 ± 0.01 | Heart/SKBr3 (Hsp90 heart): 370; EC50 (Hsp90 heart): 6 ± 0.2 µM; Lung/SKBr3 (Hsp90 lung): 136; EC50 (Hsp90 lung): 2.2 ± 0.4 µM |
| C#CCCCn1c(Cc2cc3c(cc2I)OCO3)nc2c(N)nc(F)nc21 [Example 11, 2-Fluoro-8-(6-iodo-benzo[1,3]dioxol-5-ylmethyl)-9-(pent-4-ynyl)adenine] | – | Yes | 0.0223 ± 0.002 | 0.09 ± 0.03 | 0.09 ± 0.01 | – |
| C#CCCCn1c(Cc2cc(OC)c(OC)cc2I)nc2c(N)nc(F)nc21 [Example 12, 2-Fluoro-8-(2-iodo-4,5-dimethoxy-benzyl)-9-(pent-4-ynyl)adenine] | – | No | > 15 | > 50 | > 50 | – |
| C#CCCCn1c(Cc2cc(OC)c(OC)cc2Br)nc2c(N)nc(F)nc21 [Example 13, 2-Fluoro-8-(2-bromo-4,5-dimethoxy-benzyl)-9-(pent-4-ynyl)adenine] | – | No | > 15 | 55 ± 2.3 | > 50 | – |
| C#CCCCn1c(Cc2cc(OC)c(OC)cc2Cl)nc2c(N)nc(F)nc21 [Example 14, 2-Fluoro-8-(2-chloro-4,5-dimethoxy-benzyl)-9-(pent-4-ynyl)adenine] | – | No | 4.6 ± 0.02 | 20.6 ± 6.7 | 30 ± 1 | – |
